One series deals with T1, ABCB19 (Arabidopsis thaliana, UniProt Q9LJX0).
T1 sequence (Q9LJX0 1-1252): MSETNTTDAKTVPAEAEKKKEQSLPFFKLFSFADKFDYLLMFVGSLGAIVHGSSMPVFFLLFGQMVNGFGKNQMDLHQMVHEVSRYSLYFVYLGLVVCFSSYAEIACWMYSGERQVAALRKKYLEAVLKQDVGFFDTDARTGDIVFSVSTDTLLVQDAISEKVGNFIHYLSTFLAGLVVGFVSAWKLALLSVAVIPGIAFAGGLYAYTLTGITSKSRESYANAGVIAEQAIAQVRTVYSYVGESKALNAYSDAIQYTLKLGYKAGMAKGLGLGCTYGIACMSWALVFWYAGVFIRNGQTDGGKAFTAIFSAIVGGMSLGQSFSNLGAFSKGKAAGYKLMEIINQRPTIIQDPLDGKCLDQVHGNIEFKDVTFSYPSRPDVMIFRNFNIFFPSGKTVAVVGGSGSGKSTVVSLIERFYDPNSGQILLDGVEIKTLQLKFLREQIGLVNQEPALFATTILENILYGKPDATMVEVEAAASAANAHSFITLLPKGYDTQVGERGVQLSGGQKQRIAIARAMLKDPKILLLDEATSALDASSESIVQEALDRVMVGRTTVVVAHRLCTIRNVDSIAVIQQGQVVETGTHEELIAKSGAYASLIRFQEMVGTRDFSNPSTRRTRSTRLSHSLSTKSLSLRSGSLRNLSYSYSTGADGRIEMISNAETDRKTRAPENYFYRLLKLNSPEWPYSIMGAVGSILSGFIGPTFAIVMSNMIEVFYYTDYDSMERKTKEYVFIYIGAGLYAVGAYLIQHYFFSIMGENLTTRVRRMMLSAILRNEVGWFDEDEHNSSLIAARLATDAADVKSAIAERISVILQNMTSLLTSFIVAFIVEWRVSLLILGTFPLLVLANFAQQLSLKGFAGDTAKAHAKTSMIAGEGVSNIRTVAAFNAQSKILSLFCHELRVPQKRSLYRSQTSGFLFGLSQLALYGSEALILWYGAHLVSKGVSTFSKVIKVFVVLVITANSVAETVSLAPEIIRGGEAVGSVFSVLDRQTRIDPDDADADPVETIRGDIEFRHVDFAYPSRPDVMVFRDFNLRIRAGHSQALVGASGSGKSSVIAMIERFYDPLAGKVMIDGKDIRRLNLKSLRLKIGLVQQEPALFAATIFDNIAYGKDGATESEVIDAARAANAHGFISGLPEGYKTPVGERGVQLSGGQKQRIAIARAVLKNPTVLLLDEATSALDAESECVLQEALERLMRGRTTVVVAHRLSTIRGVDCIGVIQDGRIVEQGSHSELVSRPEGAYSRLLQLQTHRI
Nature of the series: cryo-EM structure at […] Å in nanodiscs. The class given is biochemical.

Substrate in the series “purified protein”: Nc1ncnc2c1ncn2[C@@H]1O[C@H](COP(=O)(O)OP(=O)(O)OP(=O)(O)O)[C@@H](O)[C@H]1O
Nature of the series: purified protein. The class given is biochemical, Arabidopsis thaliana. Conditions: Mg2+ ATP-binding sites of the NBDs.

For `CCN(CC)c1ccc(C(=O)c2ccccc2C(=O)O)c(O)c1` [BUM, 2-[4-(Diethylamino)-2-hydroxybenzoyl]benzoic acid], at ABCB19, the IC50 came out at 890 µM.

B1: ABCB19 (Arabidopsis thaliana) (protein)
chain: T1 sequence (Q9LJX0 1-1252)
Regarding B1, the Km in the series “purified protein” turned out to be 1080 µM.

The values above are taken from paper PMC12164952 (Science Advances, 2025).
